These results are taken from ChEMBL document CHEMBL1201862, “PubChem BioAssay data set” (2004).

Among the test systems are CAKI-1; COLO 205; DU-145; HCC 2998; HL-60; HT-29; M14; Malme-3M; NCI-H226; NCI-H522; NCI/ADR-RES; OVCAR-4; PC-3; RPMI-8226; RXF 393; SF-295; SF-539; SNB-75; TK-10; U-251.
Common to all, as to assay: NCI-60 cell line screen, 48 h

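Dose response: 5 concentrations. Exposure: 48 h. Format: 96-well plates. Endpoint: linear interpolation; highest concentration if not reached. GI50: concentration for 50% inhibition of growth.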 The source made the active and inactive calls. Rule as the data show it: active = GI50 up to about 1.1 µM and inactive = higher.

`NC(=O)C1=CC2C3C=CC2(O)C(=O)OC3O1` (stereo not given): the GI50 with CAKI-1 was 6.07 µM (inactive); with COLO 205 it was 3.71 µM (inactive); in the assay with DU-145, 3.89 µM (inactive); in the assay with HCC 2998, 12.2 µM (inactive); with HL-60, 1.5 µM (inactive); in the assay with HT-29 it was 2.92 µM (inactive). In addition, the GI50 in the assay on M14 was 2.97 µM (inactive); in the assay on Malme-3M it was 1.82 µM (inactive); in the assay with NCI-H226, 2.31 µM (inactive); with NCI-H522 it was 1.83 µM (inactive); in the assay with NCI/ADR-RES it was 2.46 µM (inactive); in the assay on OVCAR-4, 4.33 µM (inactive). Moreover, the GI50 in the assay on PC-3 was 3.57 µM (inactive); in the assay on RPMI-8226 it was 1.57 µM (inactive); with RXF 393 it was 2.52 µM (inactive); with SF-295, 11.9 µM (inactive); in the assay on SF-539, 3.56 µM (inactive); in the assay with SNB-75, 7.98 µM (inactive). In addition, the GI50 is 4.07 µM (inactive) with TK-10 and 8.59 µM (inactive) in the assay with U-251.
As to `OC1c2c(ccc3c2CCC3)CC12Cc1ccccc1C2` (stereo not given), the GI50 in the assay with CAKI-1 was 16.7 µM (inactive); in the assay with COLO 205 it was 16.3 µM (inactive); in the assay with DU-145, 16.3 µM (inactive); in the assay on HCC 2998, 13.5 µM (inactive); in the assay on HL-60, 15.9 µM (inactive); with HT-29, 17 µM (inactive). In addition, the GI50 in the assay with M14 is 15.3 µM (inactive); with Malme-3M it was 12 µM (inactive); in the assay on NCI-H226, 13.4 µM (inactive); in the assay with NCI-H522 it was 16.3 µM (inactive); with NCI/ADR-RES it was 14.3 µM (inactive); in the assay on OVCAR-4 it was 16.4 µM (inactive). Also, the GI50 in the assay on PC-3 was 15.3 µM (inactive); in the assay with RPMI-8226 it was 14.7 µM (inactive); in the assay with RXF 393, 13.8 µM (inactive); in the assay on SF-295 it was 17.1 µM (inactive); in the assay on SF-539 it was 21.3 µM (inactive); in the assay with SNB-75, 13.8 µM (inactive). The GI50 with TK-10 was 14.8 µM (inactive); with U-251 it was 15.9 µM (inactive).
In the case of `C[C@]12C=CC(=O)C=C1[C@@H](F)C[C@H]1[C@@H]3CC[C@](O)(C(=O)CO)[C@@]3(C)C[C@H](O)[C@@]12F`, the GI50 in the assay on CAKI-1, in the assay with COLO 205, with DU-145, with HCC 2998, with HL-60 and in the assay with HT-29 was > 100 µM (inactive) in each case. For the same compound, the GI50 in the assay with M14 is > 100 µM (inactive); in the assay with Malme-3M, > 100 µM (inactive); with NCI-H226, 52.6 µM (inactive); in the assay on NCI-H522, > 100 µM (inactive); in the assay with NCI/ADR-RES it was > 100 µM (inactive); with OVCAR-4, > 100 µM (inactive). For the same compound, the GI50 with PC-3 was > 100 µM (inactive); in the assay with RPMI-8226, > 87.5 µM (inactive); with RXF 393, > 85.5 µM (inactive); in the assay with SF-295, > 100 µM (inactive); in the assay on SF-539, > 100 µM (inactive); in the assay on SNB-75 it was > 100 µM (inactive). The GI50 with TK-10 and in the assay on U-251 was > 100 µM (inactive) in each case.
With `c1ccc(-c2c[nH]c(SC(c3ccccc3)c3ccccc3)n2)cc1`, the GI50 was 13.8 µM (inactive) in the assay with CAKI-1; 13 µM (inactive) in the assay with COLO 205; 23.4 µM (inactive) in the assay on DU-145; 17 µM (inactive) in the assay on HCC 2998; 11.1 µM (inactive) in the assay with HL-60; 10.9 µM (inactive) in the assay with HT-29. Besides, the GI50 was 30.8 µM (inactive) in the assay with M14; 15 µM (inactive) in the assay with Malme-3M; 17.3 µM (inactive) in the assay with NCI-H226; 17.1 µM (inactive) in the assay with NCI-H522; 11.1 µM (inactive) in the assay on NCI/ADR-RES; 23.4 µM (inactive) in the assay with OVCAR-4. The GI50 is 22.1 µM (inactive) in the assay with PC-3; 10.8 µM (inactive) in the assay with RPMI-8226; 15.8 µM (inactive) in the assay with RXF 393; 15.2 µM (inactive) in the assay with SF-295; 30.4 µM (inactive) with SF-539; 32.1 µM (inactive) with SNB-75. For the same compound, the GI50 with TK-10 was 21.1 µM (inactive); with U-251, 15 µM (inactive).
For `O=C(CCNC12CC3CC(CC(C3)C1)C2)c1ccccc1`, the GI50 with CAKI-1 is > 10 µM (inactive); in the assay on COLO 205, 15 µM (inactive); in the assay with DU-145, 24.8 µM (inactive); in the assay on HCC 2998, 13.3 µM (inactive); with HL-60, 10.3 µM (inactive); with HT-29, 2.79 µM (inactive). Moreover, the GI50 is 17.8 µM (inactive) in the assay with M14; 18.2 µM (inactive) with Malme-3M; 33.1 µM (inactive) in the assay with NCI-H226; 17.3 µM (inactive) with NCI-H522; 21.2 µM (inactive) in the assay on NCI/ADR-RES; 36.8 µM (inactive) in the assay on OVCAR-4. Also, the GI50 in the assay on PC-3 is 19.6 µM (inactive); in the assay on RPMI-8226, 8.13 µM (inactive); in the assay on RXF 393, 20.1 µM (inactive); in the assay on SF-295, 20 µM (inactive); with SF-539 it was 20.9 µM (inactive); in the assay with SNB-75 it was 33 µM (inactive). Also, the GI50 is 18.2 µM (inactive) in the assay with TK-10 and 15.1 µM (inactive) with U-251.
Turning to `COc1cc2c(c(OC)c1)C(=O)O[C@H](C)CCCC/C=C/C2`, the GI50 in the assay with CAKI-1 is 10.4 µM (inactive); in the assay with COLO 205, 10.9 µM (inactive); in the assay with DU-145, 11.7 µM (inactive); in the assay on HCC 2998, 15.8 µM (inactive); in the assay with HL-60 it was 0.824 µM (active); with HT-29, 35 µM (inactive). The GI50 in the assay on M14 was 12.7 µM (inactive); in the assay on Malme-3M it was 13.1 µM (inactive); in the assay on NCI-H226 it was 45.6 µM (inactive); with NCI-H522, 8.09 µM (inactive); with NCI/ADR-RES, 29.2 µM (inactive); in the assay on OVCAR-4, 12.1 µM (inactive). The GI50 in the assay with PC-3 is 7.78 µM (inactive); in the assay with RPMI-8226, 9.12 µM (inactive); in the assay with RXF 393 it was 9.95 µM (inactive); with SF-295 it was 13.6 µM (inactive); in the assay on SF-539, 10.9 µM (inactive); in the assay with SNB-75, 14.1 µM (inactive). The GI50 was 15.8 µM (inactive) in the assay on TK-10 and 9.79 µM (inactive) with U-251.
Regarding `COc1cc(C2S/C(=C/c3ccccc3)C(=O)N2c2ccc([N+](=O)[O-])cc2)cc(OC)c1OC` (stereo not given), the GI50 with CAKI-1 was 97.1 µM (inactive); in the assay with COLO 205, 26.1 µM (inactive); in the assay on DU-145, > 41.2 µM (inactive); with HCC 2998, > 100 µM (inactive); in the assay on HL-60, 40.6 µM (inactive); in the assay with HT-29, > 39.6 µM (inactive). For the same compound, the GI50 in the assay on M14 was 26.1 µM (inactive); in the assay with Malme-3M, > 100 µM (inactive); with NCI-H226 it was 58.9 µM (inactive); in the assay with NCI-H522 it was > 63.5 µM (inactive); in the assay on NCI/ADR-RES, > 80.4 µM (inactive); in the assay with OVCAR-4, 45.9 µM (inactive). Also, the GI50 in the assay on PC-3 was > 100 µM (inactive); in the assay with RPMI-8226, > 57.7 µM (inactive); in the assay on RXF 393 it was > 100 µM (inactive); in the assay on SF-295, 58.1 µM (inactive); with SF-539, > 100 µM (inactive); in the assay with SNB-75 it was > 100 µM (inactive). Further, the GI50 in the assay with TK-10 and in the assay on U-251 was > 100 µM (inactive) throughout.
On to `CCC(=O)C(CCN1CCC2(CCCc3ccccc32)CC1)(c1ccccc1)c1ccccc1`, for which the GI50 with CAKI-1 is 3.44 µM (inactive); with COLO 205, 1.34 µM (inactive); in the assay on DU-145 it was 3.1 µM (inactive); in the assay with HCC 2998 it was 2.64 µM (inactive); with HL-60 it was 1.57 µM (inactive); in the assay on HT-29 it was 0.993 µM (active). Besides, the GI50 in the assay on M14 was 1.87 µM (inactive); with Malme-3M it was 1.91 µM (inactive); in the assay on NCI-H226, 2.05 µM (inactive); in the assay with NCI-H522, 1.75 µM (inactive); with NCI/ADR-RES it was 3.19 µM (inactive); with OVCAR-4, 3.52 µM (inactive). In addition, the GI50 is 2.45 µM (inactive) with PC-3; 0.622 µM (active) in the assay with RPMI-8226; 2 µM (inactive) with RXF 393; 2.02 µM (inactive) in the assay with SF-295; 2.95 µM (inactive) in the assay on SF-539; 2.95 µM (inactive) in the assay on SNB-75. In addition, the GI50 in the assay on TK-10 is 3.77 µM (inactive); in the assay with U-251, 2.62 µM (inactive).
With `C=C(C)C(CC=C(C)C)Cc1c(O)cc(OC)c2c1OC(c1ccc(O)cc1O)C(O)C2=O` (stereo not given), the GI50 in the assay on CAKI-1 was 13.6 µM (inactive); with COLO 205, 16.3 µM (inactive); in the assay with DU-145, 18.3 µM (inactive); with HCC 2998, 16.8 µM (inactive); in the assay on HL-60, > 100 µM (inactive); in the assay on HT-29, 20.7 µM (inactive). Besides, the GI50 in the assay with M14 was 22 µM (inactive); in the assay with Malme-3M, 17.7 µM (inactive); in the assay on NCI-H226 it was 18.3 µM (inactive); in the assay with NCI-H522 it was 18.9 µM (inactive); in the assay with NCI/ADR-RES it was 22.9 µM (inactive); in the assay on OVCAR-4, 16.3 µM (inactive). For the same compound, the GI50 in the assay on PC-3 is 13.5 µM (inactive); in the assay with RPMI-8226, > 100 µM (inactive); in the assay with RXF 393 it was 19 µM (inactive); with SF-295 it was 15 µM (inactive); with SF-539, 15.9 µM (inactive); in the assay with SNB-75 it was 17.2 µM (inactive). Moreover, the GI50 in the assay on TK-10 was 21.8 µM (inactive); in the assay with U-251, 14.5 µM (inactive).
For `Cc1ccc(S(=O)(=O)N/C(=N\O)Nc2ccc(Cl)c(Cl)c2)cc1`, the GI50 is 5.41 µM (inactive) in the assay with CAKI-1; 17.1 µM (inactive) in the assay with COLO 205; 12 µM (inactive) with DU-145; 2.14 µM (inactive) in the assay on HCC 2998; 1.87 µM (inactive) in the assay with HL-60; 12.8 µM (inactive) in the assay on HT-29. Moreover, the GI50 in the assay on M14 was 5.58 µM (inactive); with Malme-3M it was 2.07 µM (inactive); in the assay with NCI-H226, 17.1 µM (inactive); in the assay with NCI-H522, 4.47 µM (inactive); with NCI/ADR-RES, 12.8 µM (inactive); with OVCAR-4 it was 6.46 µM (inactive). Besides, the GI50 in the assay on PC-3 is 5.48 µM (inactive); with RPMI-8226 it was 10.1 µM (inactive); with RXF 393, 9.84 µM (inactive); with SF-295, 17.2 µM (inactive); with SF-539 it was 12.1 µM (inactive); with SNB-75 it was 5.14 µM (inactive). The GI50 was 14.6 µM (inactive) with TK-10 and 4.36 µM (inactive) in the assay on U-251.
